Values after ≈ are worked out from the molar mass of the structure shown. Where two headings read alike, the source gives them in different places.

The test system of one series is Mtb laboratory ID MATI. As to conditions: Laboratory ID MATI, cited from earlier work; for Susceptibility: CLSI breakpoints 2021; for Minimum inhibitory concentration: tested and interpreted according to CLSI breakpoints in 2021.
In another series the test system is Mtb laboratory ID IZAK. The note with it: Laboratory ID IZAK, cited from earlier work; for Susceptibility: CLSI breakpoints 2020; for Minimum inhibitory concentration: tested and interpreted according to CLSI breakpoints in 2020.
The subject of series [1] is Mycobacterium tuberculosis H37Rv CNCTC My 331/88 (ATCC 27294). Put plainly: MABA microdilution, Mtb H37Rv. Type of series: cell-based.
The test system of series [2] is M. aurum DSM 43999 (ATCC 23366). The series can be described thus: Microplate Alamar Blue Assay (MABA), M. aurum. It is filed as cell-based. The note with it: MABA, resazurin after 72 h; for MIC: Mycolicibacterium aurum, read-out: M. aurum MIC. For orientation: Resazurin is reduced to fluorescent resorufin, in cell work by metabolically active cells.
The subject of series [3] is Mycobacterium tuberculosis H37Ra ITM-M006710 (ATCC 9431). The series can be described thus: Microplate Alamar Blue Assay (MABA), Mtb H37Ra. Type of series: cell-based. The note with it: Middlebrook 7H9 broth pH 6.6, resazurin after 120 h; for Mtb H37Ra MIC: MABA; for MIC: Mycobacterium tuberculosis, 120 h, pH 6.6, MABA, read-out: Mtb H37Ra MIC.
For series [4], the system named is HepG2 human hepatocellular carcinoma cells. Put plainly: In vitro HepG2 cytotoxicity (CellTiter 96). As to conditions: Homo sapiens, HepG2, 24 h, read-out: HepG2 IC50, 24 h incubation; * limit = highest evaluated concentration (precipitation in medium); ** over the 1000 µM limit.
In series [5] the test system is Mycobacterium smegmatis DSM 43465 (ATCC 607). The series can be described thus: Microplate Alamar Blue Assay (MABA), M. smegmatis. Type of series: cell-based. As to conditions: MABA, resazurin after 48 h; for MIC: Mycolicibacterium smegmatis, read-out: M. smegmatis MIC.
The subject of series [6] is Klebsiella pneumoniae CCM 4415 (ATCC 10031). The note with it: 24 h.
The subject of series [7] is Escherichia coli CCM 3954 (ATCC 25922). The series can be described thus: Antibacterial microdilution broth (EUCAST), EC. It is filed as cell-based. The note with it: read after 24 h, read-out: EC MIC. (In general: In broth dilution the organism is exposed to a series of concentrations in liquid medium.)
In series [8] the test system is Pseudomonas aeruginosa CCM 3955 (ATCC 27853). Put plainly: Antibacterial microdilution broth (EUCAST), PA. It is filed as cell-based. The note with it: read after 24 h.
Series [9] concerns Staphylococcus aureus subsp. aureus CCM 4223 (ATCC 29213). The series can be described thus: Antibacterial microdilution broth (EUCAST), SA. Type of series: cell-based. As to conditions: read after 24 h, read-out: SA MIC.
The test system of series [10] is Candida albicans CCM 8320 (ATCC 24433). Put plainly: Antifungal microdilution broth (EUCAST), CA. Type of series: cell-based. As to conditions: read after 24 h, read-out: CA MIC.
The subject of series [11] is Candida parapsilosis CCM 8260 (ATCC 22019). The series can be described thus: Antifungal microdilution broth (EUCAST), CP. It is filed as cell-based. As to conditions: read after 24 h, read-out: CP MIC.
The test system of series [12] is Candida tropicalis CCM 8264 (ATCC 750). The series can be described thus: Antifungal microdilution broth (EUCAST), CT. It is filed as cell-based. As to conditions: read after 24 h, read-out: CT MIC.
Series [13] deals with Enterococcus faecalis CCM 4224 (ATCC 29212). Put plainly: Antibacterial microdilution broth (EUCAST), EF. It is filed as cell-based. The note with it: read after 24 h, read-out: EF MIC.
The subject of series [14] is Trichophyton interdigitale CCM 8377 (ATCC 9533). The series can be described thus: Antifungal microdilution broth (EUCAST), TI. Type of series: cell-based.
Series [15] relates to Aspergillus flavus CCM 8363. Put plainly: Antifungal microdilution broth (EUCAST), AFla. Type of series: cell-based. The note with it: read after 24 h, read-out: AFla MIC.
Series [16] has as its system Lichtheimia corymbifera CCM 8077. The series can be described thus: Antifungal microdilution broth (EUCAST), LC. It is filed as cell-based. As to conditions: read after 24 h, read-out: LC MIC.
Series [17] relates to Acinetobacter baumannii DSM 30007 (ATCC 19606). The series can be described thus: Antibacterial microdilution broth (EUCAST), ACI. It is filed as cell-based. The note with it: read after 24 h, read-out: ACI MIC.
For series [18], the system named is Aspergillus fumigatus ATCC 204305. The series can be described thus: Antifungal microdilution broth (EUCAST), AF. It is filed as cell-based. As to conditions: read after 24 h, read-out: AF MIC.
The test system of series [19] is Candida krusei CCM 8271 (ATCC 6258). The series can be described thus: Antifungal microdilution broth (EUCAST), CK. As to conditions: read after 24 h, read-out: CK MIC. Type of series: cell-based.
The subject of series [20] is Staphylococcus aureus subsp. aureus methicillin-resistant (MRSA) CCM 4750 (ATCC 43300). The series can be described thus: Antibacterial microdilution broth (EUCAST), MRSA. It is filed as cell-based. As to conditions: read after 24 h, read-out: MRSA MIC.
Series [21] relates to Staphylococcus epidermidis CCM 4418 (ATCC 12228). Put plainly: Antibacterial microdilution broth (EUCAST), SE. Type of series: cell-based. As to conditions: read after 24 h, read-out: SE MIC.
For series [22], the system named is Klebsiella pneumoniae CCM 4415 (ATCC 10031). The series can be described thus: Antibacterial microdilution broth (EUCAST), KP. The note with it: read after 24 h.
Setting [23] is: Mycobacterium tuberculosis; read-out: Mtb H37Rv MIC.

For the compound `NC(=O)c1cnccn1` [PZA, pyrazinamide], in the series with Mtb laboratory ID MATI, the Susceptibility result is given as “resistant” and the Minimum inhibitory concentration is greater than 128 µg/mL. Moreover, in the series with Mtb laboratory ID IZAK, the Susceptibility entry is “resistant” and the Minimum inhibitory concentration was greater than 16 µg/mL.
The MIC is the least concentration at which growth counts as inhibited. What is called IC50 is the concentration at which inhibition is half-maximal. For `NNC(=O)c1ccncc1` [INH, isoniazid], the MIC in series [1] (setting [23]) turned out to be 0.2 µg/mL (≈ 1.46 µM); in series [2], 3.91 µg/mL (≈ 28.5 µM); in series [3], 0.25 µg/mL (≈ 1.82 µM); in series [5], 15.6 µg/mL (≈ 114 µM). Also, the “Mtb H37Ra MIC” value in series [3] lay within 0.25 to 0.5 µg/mL. In the series with Mtb laboratory ID MATI, the Susceptibility result is recorded as “resistant”. In addition, the concentration for half-maximal inhibition (IC50) in series [4] was greater than 1000 µM.
As for `CC[C@@H](CO)NCCN[C@@H](CC)CO` [EMB, ethambutol], the results for the MIC in [1] (setting [23]) and in [3] were 0.39 µg/mL (≈ 1.91 µM) and 0.5 µg/mL (≈ 2.45 µM), respectively. The Susceptibility entry in the series on Mtb laboratory ID MATI and with Mtb laboratory ID IZAK was “sensitive” throughout. For the same compound, the Minimum inhibitory concentration in the series on Mtb laboratory ID MATI and in the series on Mtb laboratory ID IZAK was 0.5 µg/mL (≈ 2.45 µM) each time.
As to `CO[C@H]1/C=C/O[C@@]2(C)Oc3c(C)c(O)c4c(O)c(c(/C=N/N5CCN(C)CC5)c(O)c4c3C2=O)NC(=O)/C(C)=C\C=C\[C@H](C)[C@H](O)[C@@H](C)[C@@H](O)[C@@H](C)[C@H](OC(C)=O)[C@@H]1C` [RIF, rifampicin], the MIC was found to be 0.39 µg/mL (≈ 0.474 µM) in series [2], 0.003 µg/mL (≈ 0.00365 µM) in series [3] and 12.5 µg/mL (≈ 15.2 µM) in series [5]. The Susceptibility entry in the series with Mtb laboratory ID MATI and with Mtb laboratory ID IZAK was “resistant” each time. In addition, the Minimum inhibitory concentration in the series with Mtb laboratory ID MATI and in the series with Mtb laboratory ID IZAK was greater than 8 µg/mL in each case. For the same compound, in series [4], the concentration for half-maximal inhibition (IC50) was greater than 500 µM.
On to `COC(=O)c1nccnc1NC(=O)c1ccccc1` [Compound 1e], for which the “KP MIC” value in series [6] is greater than 500 µM. The MIC in [7], in [9], in series [10], in series [11], in series [12] and in series [13] was greater than 500 µM in each case. Moreover, the MIC in [15], in series [16], in series [17], in series [18], in series [19] and in series [20] was greater than 500 µM each time. Moreover, in series [2], the “M. aurum MIC” value stood at 250 µg/mL. Further, the “Mtb H37Ra MIC” value in series [3] was no less than 500 µg/mL. The “PA MIC” value in [8] is listed as greater than 500 µM. The “TI MIC” value in series [14] (read after 72 h) is on record as greater than 500 µM. The “M. smegmatis MIC” value in series [5] was 125 µg/mL.
`NC(=O)c1nccnc1NC(=O)c1ccc(F)cc1` [Compound 12]: the MIC in series [1] (Mycobacterium tuberculosis, read-out: Mtb H37Rv MIC) was 50 µg/mL (≈ 192 µM); in series [7] (Escherichia coli), greater than 500 µM; in [2] it was no less than 500 µg/mL; in series [3], 31.2 µg/mL (≈ 120 µM); in [8] (Pseudomonas aeruginosa, read-out: PA MIC), greater than 500 µM; in series [9] (Staphylococcus aureus) it was greater than 500 µM. Also, the MIC is greater than 500 µM in series [10] (Candida albicans); greater than 500 µM in [11] (Lodderomyces parapsilosis); greater than 500 µM in series [12] (Candida tropicalis); greater than 500 µM in series [21]; greater than 500 µM in series [13] (Enterococcus faecalis); greater than 500 µM in [14] (Trichophyton interdigitale, 72 h, read-out: TI MIC). Also, the minimal inhibitory concentration (MIC) is greater than 500 µM in [15] (Aspergillus flavus, CCM8363); greater than 500 µM in series [16] (Lichtheimia corymbifera, CCM8077); 250 µg/mL (≈ 961 µM) in series [5]; greater than 500 µM in series [17] (Acinetobacter baumannii); greater than 500 µM in series [18] (Aspergillus fumigatus, ATCC204305); greater than 500 µM in [19] (Pichia kudriavzevii). Moreover, the MIC in series [20] (Staphylococcus aureus) is greater than 500 µM. Moreover, in series [1] (virulent strain Mtb H37Rv and MDR isolates IZAK, MATI), the “activity on Mtb H37Rv and both MDR strains (in words)” value is “significant activity”. For the same compound, in series [4], the concentration for half-maximal inhibition (IC50) was greater than 250 µM. The “KP MIC” value in series [22] is on record as greater than 500 µM.
In the case of `[H]/N=C(/N)N[C@H]1[C@H](O)[C@@H](O)[C@H](O[C@@H]2O[C@@H](C)[C@](O)(C=O)[C@H]2O[C@@H]2O[C@@H](CO)[C@H](O)[C@@H](O)[C@@H]2NC)[C@@H](N/C(N)=N\[H])[C@@H]1O` [STM, streptomycin], the MIC in series [3] was 0.5 µg/mL (≈ 0.86 µM). Besides, the Susceptibility result in the series on Mtb laboratory ID MATI and with Mtb laboratory ID IZAK was “resistant” throughout. For the same compound, the Minimum inhibitory concentration was greater than 16 µg/mL in the series with Mtb laboratory ID MATI and 4 µg/mL (≈ 6.88 µM) in the series with Mtb laboratory ID IZAK.

The values are drawn from publication PMC9687610, “Adenosine-Mimicking Derivatives of 3-Aminopyrazine-2-Carboxamide: Towards Inhibitors of Prolyl-tRNA Synthetase with Antimycobacterial Activity” (Biomolecules, 2022).
